Data: the METLIN SMRT retention time set (Domingo-Almenara et al. 2019)

Assay: gradient 5% acetonitrile 3 min, to 50% in 2 min, to 85% in 15 min, held 3 min, 100 µL/min
Conditions: column: Zorbax Extend-C18 2.1 x 50 mm; eluents: water / acetonitrile, 0.1% formic acid
Method in brief: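 Data were gathered over 3 months by HPLC coupled to a quadrupole time-of-flight mass spectrometer, operated in positive and negative ionization mode. Mixtures of ~100 pure standards ran on a Zorbax Extend-C18 column (2.1 × 50 mm, 1.8 μm) at 100 μL/min, with water and acetonitrile each containing 0.1% formic acid and dead and dwell volumes of 40 μL and 900 μL. Retention time was read from adduct peaks picked by computer and checked manually.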

Cc1cc(C(=O)N2CCCCCC2c2nnc(C)o2)no1 (centres undefined) showed an RP-LC retention time of 698 s.
Cc1cc(-c2nnc(-c3ccccc3)o2)c(C)n1CC(=O)N1CCN(C2CCCCC2)CC1 gave an RP-LC retention time of 666 s.
Cc1cccc(NC(=O)Nc2c(-c3cccc(C)c3)nc3ccccn23)c1 gave an RP-LC retention time of 716 s.
In the case of Cn1cc(CCN2CCN(C(=O)c3ccc(Br)cc3)CC2)c2cccnc21, the RP-LC retention time is reported as 620 s.
Work on CN(CCc1noc(-c2ccc(C(=O)N3CCOCC3)cc2)n1)C(=O)COc1ccc(Cl)cc1 yielded an RP-LC retention time of 766 s.
CSc1ccc(CNC(=O)c2c(C)sc3ccn(C)c(=O)c23)cc1 showed an RP-LC retention time of 784 s.
COc1ccc(C2=NC3(CCN(C(=O)Nc4ccc(Cl)cc4)CC3)NC2=O)cc1 gave an RP-LC retention time of 835 s.
Cc1ccc(CNC(=O)C2CCN(S(=O)(=O)c3cc(-c4noc(C5CC5)n4)sc3C)CC2)o1 gave an RP-LC retention time of 1010 s.
CC(C)OCCCNC(=O)c1ccc2c(c1)N(C)C(=O)C1CCCCN21 (centres undefined) gave an RP-LC retention time of 770 s.
With CCOc1ccc(-c2noc(-c3nn(-c4ccc(F)cc4)c(=O)c4ccccc34)n2)cc1OC the RP-LC retention time was 1240 s.
COc1ccc(-c2nc3cnccn3c2Nc2cccc(C(=O)NCc3ccco3)c2)cc1 showed an RP-LC retention time of 741 s.
Compound COc1ccc(-c2ncc3c(n2)CCN(C(=O)c2cccc(Cl)c2)C3)cc1 has an RP-LC retention time of 975 s.
With O=C(Nc1ccc(Cl)c(C(F)(F)F)c1)C(=O)c1ccc[nH]1 the RP-LC retention time was 1050 s.
With Cc1nnc(N2CCCC(C(=O)NCc3ccc(Cl)cc3)C2)c2nn(-c3ccccc3)c(C)c12 (centres undefined) the RP-LC retention time was 760 s.
CC1(C(=O)NC2CCCCCCC2)CN(S(C)(=O)=O)CC(=O)N1Cc1cccc(F)c1 (centres undefined) showed an RP-LC retention time of 956 s.
For CC1(C(=O)NCc2ccccc2)Cn2cnc(C(=O)N3CCc4ccccc43)c2C(=O)N1C1CC1 (centres undefined), the RP-LC retention time was 720 s.
Work on Cc1cccc(-c2ncccc2CNS(=O)(=O)Cc2ccc(Cl)cc2)c1 yielded an RP-LC retention time of 765 s.
For CCn1c(=O)c2ccccc2n(Cc2nc(-c3ccc(Cl)cc3)no2)c1=O, the RP-LC retention time was 1090 s.
For Cc1cc2c(cc1S(=O)(=O)N1CCCC1C(=O)Nc1ccc3c(c1)OCO3)OCC(=O)N2 (centres undefined), the RP-LC retention time was 720 s.
In the case of O=C(c1ccsc1)N1CCCC1(CO)Cc1ccccc1 (centres undefined), the RP-LC retention time is reported as 819 s.
O=C(CSc1nc(N2CCCCC2)nc2ccccc12)Nc1ccc2c(c1)OCO2 gave an RP-LC retention time of 694 s.
With CCc1nc(-c2csc(S(=O)(=O)N3CCCC(C(=O)NCc4cccs4)C3)c2)no1 (centres undefined) the RP-LC retention time was 952 s.
CCc1nncn1C1CCN(C(=O)Nc2ccc(F)c(Cl)c2)C1 (centres undefined) gave an RP-LC retention time of 661 s.
With CSc1ccc(CNC(=O)Cn2cnc3nc4c(cc3c2=O)CC(C)CC4)cc1 (centres undefined) the RP-LC retention time was 781 s.
With Cc1cc(C(=O)NCCc2ccco2)c2c(=O)n(C)c(=O)n(C)c2n1 the RP-LC retention time was 688 s.
Cc1sc2ncnc(N3CCCC(C)C3)c2c1C(=O)Nc1ccc(Cl)cc1F (centres undefined) showed an RP-LC retention time of 1330 s.
For CCc1ccc(OCC(=O)Nc2nnc(C3CC(=O)N(c4ccccc4)C3)o2)cc1 (centres undefined), the RP-LC retention time was 799 s.
Work on COc1ccccc1-c1nnc(-c2ccc(C)c(S(=O)(=O)N3CCCC3)c2)o1 yielded an RP-LC retention time of 966 s.
Work on Cc1ccc(NC(=O)N2CCCC(C)(C(=O)NCc3ccccc3)C2)c(Cl)c1 (centres undefined) yielded an RP-LC retention time of 993 s.
Compound COc1ccc(-c2nnc(CC(=O)NC3CC3)o2)cc1 has an RP-LC retention time of 640 s.
Compound O=C(Cn1nc2c(N3CCCCCC3)nccn2c1=O)Nc1ccc(Cl)cc1F has an RP-LC retention time of 786 s.
With c1ccc(N2CCN(c3c4c(nc5ncnn35)CCC4)CC2)nc1 the RP-LC retention time was 563 s.
For CCOc1ccccc1N1CCN(C(=O)c2sc3ncccc3c2-n2cccc2)CC1, the RP-LC retention time was 1040 s.
Cc1oc(-c2[nH]ncc2C(=O)N2CCCC2)cc1S(=O)(=O)NCc1ccccc1 showed an RP-LC retention time of 700 s.
In the case of COc1ccc(-c2nnc(-c3ccc(Cl)c(S(=O)(=O)N4CCC(C)CC4)c3)o2)cc1, the RP-LC retention time is reported as 1230 s.
In the case of CCc1nc(N)n(CC(=O)Nc2cc(C)ccc2OC)c(=O)c1C, the RP-LC retention time is reported as 640 s.
COc1ccc(-c2csc3ncnc(NCCN4CCOCC4)c23)cc1 showed an RP-LC retention time of 569 s.
For O=S(=O)(NCc1ccccn1)c1ccc(F)c(Cl)c1, the RP-LC retention time was 643 s.
Compound Fc1cccc(N2CC3(CCN(Cc4ccncc4F)CC3)C2c2ccccc2)c1 (centres undefined) has an RP-LC retention time of 650 s.
Cc1cccc(S(=O)(=O)N2CCCC(C)(C(=O)NCc3cccc(F)c3)C2)c1 (centres undefined) showed an RP-LC retention time of 972 s.
With CCn1ccc(C(=O)N2CCCN(C3=NS(=O)(=O)C(c4ccc(F)cc4)=C3C)CC2)n1 the RP-LC retention time was 759 s.
For COc1ccc(N2CCCn3c2nc2c3c(=O)n(C)c(=O)n2C)cc1, the RP-LC retention time was 568 s.
In the case of COc1ccc(NC(=O)Cn2nc3c(Oc4ccccc4Cl)nccn3c2=O)cc1, the RP-LC retention time is reported as 859 s.
Work on CN(C)CCNC(=O)C1CCN(c2nccnc2Sc2ccccc2)CC1 yielded an RP-LC retention time of 629 s.
